Measurements: patent publication US20260125382A1, “COMPOUNDS FOR INHIBITING OR DEGRADING CDK2 AND/OR CDK9 AND MEDICINAL USE THEREOF” (KOREA RESEARCH INSTITUTE OF CHEMICAL TECHNOLOGY, priority 2022, published 2026)

Assays:
CDK2 = target: T1, CDK2 (Homo sapiens, UniProt P24941); assay: CDK protein degradation activity (Western blotting), CDK2; assay type: cell-based; settings: MDA-MB-231 cells, 16 hours, Western blot
T1 construct: endogenous in cells; host or cells: MDA-MB-231
Method in brief: (§1)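 Degradation is judged from CDK2 and CDK9 band intensity relative to tubulin and DMSO-treated cells, after 16 h exposure of MDA-MB-231 cells to three compound concentrations (100 nM, 1 μM, 10 μM).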

CDK9 = target: T2, CDK9 (Homo sapiens, UniProt P50750); assay: CDK protein degradation activity (Western blotting), CDK9; assay type: cell-based; settings: MDA-MB-231 cells, 16 hours, Western blot
T2 construct: endogenous in cells; host or cells: MDA-MB-231
Method in brief: as §1

T2 sequence (P50750 whole entry): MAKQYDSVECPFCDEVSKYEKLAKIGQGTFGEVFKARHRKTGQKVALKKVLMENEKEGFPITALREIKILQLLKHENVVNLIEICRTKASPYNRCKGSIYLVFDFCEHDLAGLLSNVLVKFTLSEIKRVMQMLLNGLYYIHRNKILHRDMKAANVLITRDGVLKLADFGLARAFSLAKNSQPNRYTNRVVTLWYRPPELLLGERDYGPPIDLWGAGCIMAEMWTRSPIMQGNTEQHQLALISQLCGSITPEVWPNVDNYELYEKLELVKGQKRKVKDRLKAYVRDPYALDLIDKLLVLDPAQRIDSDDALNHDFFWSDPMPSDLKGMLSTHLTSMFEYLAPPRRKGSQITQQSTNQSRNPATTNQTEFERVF

Compound | Enzyme degradation CDK2 (% remaining) @ 0.1 μM (CDK2) | Enzyme degradation CDK2 (% remaining) @ 1 μM (CDK2) | Enzyme degradation CDK2 (% remaining) @ 10 μM (CDK2) | Enzyme degradation CDK9 (% remaining) @ 0.1 μM (CDK9) | Enzyme degradation CDK9 (% remaining) @ 1 μM (CDK9) | Enzyme degradation CDK9 (% remaining) @ 10 μM (CDK9)
O=C1CC[C@@H](c2cccc(OCC(=O)N3CCC4(CC3)CC(N3CCC(c5ccc(Nc6ncnc7c6ncn7C6CC(NC(=O)Cc7ccccc7)C6)cc5)CC3)C4)c2)C(=O)N1 (stereo partly drawn) [Compound 285, N-((1s,3s)-3-(6-((4-(1-(7-(2-(3-(2,6-dioxopiperidin-3-yl)phenoxy)acetyl)-7-azaspiro[3.5]nonan-2-yl)piperidin-4-yl)phenyl)amino)-9H-purin-9-yl)cyclobutyl)-2-phenylacetamide] | 10% | 20% | 20% | 0/0/0% | 0/0/0% | 0/0/0%
COc1ccc(C(=O)N2CCC3(CC2)CC(N2CCC(c4ccc(Nc5ncnc6c5ncn6[C@H]5C[C@@H](NC(=O)Cc6ccccc6)C5)cc4)CC2)C3)cc1N1CCC(=O)NC1=O [Compound 286, N-((1s,3s)-3-(6-((4-(1-(7-(3-(2,4-dioxotetrahydropyrimidin-1(2H)-yl)-4-methoxybenzoyl)-7-azaspiro[3.5]nonan-2-yl)piperidin-4-yl)phenyl)amino)-9H-purin-9-yl)cyclobutyl)-2-phenylacetamide] | 40% | 60% | 70% | 40% | 30% | 30%
O=C1CC[C@H](N2C(=O)c3cccc(OCC(=O)N4CCC(CN5CCC(c6ccc(Nc7ncnc8c7ncn8[C@H]7C[C@@H](NC(=O)Cc8ccccc8)C7)cc6)CC5)CC4)c3C2=O)C(=O)N1 [Compound 287, N-((1s,3s)-3-(6-((4-(1-((1-(2-((2-(2,6-dioxopiperidin-3-yl)-1,3-dioxoisoindolin-4-yl)oxy)acetyl)piperidin-4-yl)methyl)piperidin-4-yl)phenyl)amino)-9H-purin-9-yl)cyclobutyl)-2-phenylacetamide] | 0/0/0% | 0/0/0% | 0/0/0% | 0/0/0% | 0/0/0% | 0/0/0%
O=C1CCC(N2C(=O)c3cccc(NCC(=O)N4CCC(CN5CCC(c6ccc(Nc7ncnc8c7ncn8[C@H]7C[C@@H](NC(=O)Cc8ccccc8)C7)cc6)CC5)CC4)c3C2=O)C(=O)N1 (stereo partly drawn) [Compound 288, N-((1s,3s)-3-(6-((4-(1-((1-((2-(2,6-dioxopiperidin-3-yl)-1,3-dioxoisoindolin-4-yl)glycyl)piperidin-4-yl)methyl)piperidin-4-yl)phenyl)amino)-9H-purin-9-yl)cyclobutyl)-2-phenylacetamide] | 10% | 20% | 20% | 0/0/0% | 0/0/0% | 0/0/0%
O=C1CC[C@H](N2C(=O)c3ccc(OCC(=O)N4CCC(CN5CCC(c6ccc(Nc7ncnc8c7ncn8C7CC(NC(=O)Cc8ccccc8)C7)cc6)CC5)CC4)cc3C2=O)C(=O)N1 (stereo partly drawn) [Compound 289, N-((1s,3s)-3-(6-((4-(1-((1-(2-((2-(2,6-dioxopiperidin-3-yl)-1,3-dioxoisoindolin-5-yl)oxy)acetyl)piperidin-4-yl)methyl)piperidin-4-yl)phenyl)amino)-9H-purin-9-yl)cyclobutyl)-2-phenylacetamide] | 40% | 60% | 70% | 30% | 0% | 0%
O=C1CC[C@H](N2C(=O)c3ccc(NCC(=O)N4CCC(CN5CCC(c6ccc(Nc7ncnc8c7ncn8C7CC(NC(=O)Cc8ccccc8)C7)cc6)CC5)CC4)cc3C2=O)C(=O)N1 (stereo partly drawn) [Compound 290, N-((1s,3s)-3-(6-((4-(1-((1-((2-(2,6-dioxopiperidin-3-yl)-1,3-dioxoisoindolin-5-yl)glycyl)piperidin-4-yl)methyl)piperidin-4-yl)phenyl)amino)-9H-purin-9-yl)cyclobutyl)-2-phenylacetamide] | 20% | 20% | 30% | 10% | 0% | 0%
O=C1CC[C@H](N2C(=O)c3cccc(N4CCC(CN5CCC(c6ccc(Nc7ncnc8c7ncn8C7CC(NC(=O)Cc8ccccc8)C7)cc6)CC5)CC4)c3C2=O)C(=O)N1 (stereo partly drawn) [Compound 291, N-((1s,3s)-3-(6-((4-(1-((1-(2-(2,6-dioxopiperidin-3-yl)-1,3-dioxoisoindolin-4-yl)piperidin-4-yl)methyl)piperidin-4-yl)phenyl)amino)-9H-purin-9-yl)cyclobutyl)-2-phenylacetamide] | 20/20/20% | 20/20/20% | 20/20/20% | 20% | 0% | 0%
O=C1CC[C@H](N2C(=O)c3ccc(N4CCC(CN5CCC(c6ccc(Nc7ncnc8c7ncn8[C@H]7C[C@@H](NC(=O)Cc8ccccc8)C7)cc6)CC5)CC4)cc3C2=O)C(=O)N1 [Compound 292, N-((1s,3s)-3-(6-((4-(1-((1-(2-(2,6-dioxopiperidin-3-yl)-1,3-dioxoisoindolin-5-yl)piperidin-4-yl)methyl)piperidin-4-yl)phenyl)amino)-9H-purin-9-yl)cyclobutyl)-2-phenylacetamide] | 10/10/10% | 10/10/10% | 10/10/10% | 10% | 0% | 0%
O=C1CCC(N2C(=O)c3cccc(OCC(=O)N4CCC5(CC4)CC(N4CCC(c6ccc(Nc7ncnc8c7ncn8[C@H]7C[C@@H](NC(=O)Cc8ccccc8)C7)cc6)CC4)C5)c3C2=O)C(=O)N1 (stereo partly drawn) [Compound 293, N-((1s,3s)-3-(6-((4-(1-(7-(2-((2-(2,6-dioxopiperidin-3-yl)-1,3-dioxoisoindolin-4-yl)oxy)acetyl)-7-azaspiro[3.5]nonan-2-yl)piperidin-4-yl)phenyl)amino)-9H-purin-9-yl)cyclobutyl)-2-phenylacetamide] | 0/0/0% | 0/0/0% | 0/0/0% | 0/0/0% | 0/0/0% | 0/0/0%
O=C1CCC(N2C(=O)c3cccc(NCC(=O)N4CCC5(CC4)CC(N4CCC(c6ccc(Nc7ncnc8c7ncn8[C@H]7C[C@@H](NC(=O)Cc8ccccc8)C7)cc6)CC4)C5)c3C2=O)C(=O)N1 (stereo partly drawn) [Compound 294, N-((1s,3s)-3-(6-((4-(1-(7-((2-(2,6-dioxopiperidin-3-yl)-1,3-dioxoisoindolin-4-yl)glycyl)-7-azaspiro[3.5]nonan-2-yl)piperidin-4-yl)phenyl)amino)-9H-purin-9-yl)cyclobutyl)-2-phenylacetamide] | 10/10/10% | 10/10/10% | 10/10/10% | 0/0/0% | 0/0/0% | 0/0/0%
O=C1CC[C@H](N2C(=O)c3ccc(OCC(=O)N4CCC5(CC4)CC(N4CCC(c6ccc(Nc7ncnc8c7ncn8[C@H]7C[C@@H](NC(=O)Cc8ccccc8)C7)cc6)CC4)C5)cc3C2=O)C(=O)N1 [Compound 295, N-((1s,3s)-3-(6-((4-(1-(7-(2-((2-(2,6-dioxopiperidin-3-yl)-1,3-dioxoisoindolin-5-yl)oxy)acetyl)-7-azaspiro[3.5]nonan-2-yl)piperidin-4-yl)phenyl)amino)-9H-purin-9-yl)cyclobutyl)-2-phenylacetamide] | 20/20/20% | 20/20/20% | 20/20/20% | 0/0/0% | 0/0/0% | 0/0/0%
